Experimental data taken from patent US10251885B2, “Azole antifungal compositions” (ALLERGAN PHARMACEUTICALS INTERNATIONAL LIMITED, priority 2009, dated 2019).
≈ marks a conversion by molar mass, not a printed value.

Experiments:
[1] = system: T. rubrum elevated terbinafine (MIC); assay: Microdilution assay, minimum fungicidal concentration (MFC); assay type: cell-based, Trichophyton rubrum; conditions: n = 3 strains
Description: (§1) Multiple strains of Trichophyton rubrum, Trichophyton mentagrophytes and Epidermophyton flucossum were obtained from the culture collection facility at the Center for Medical Mycology (University Hospitals of Cleveland/Case Western Reserve University, Cleveland, Ohio). The minimum inhibitory concentration (MICs) for albaconazole, ciclopirox and terbinafine against each dermatophyte strain was determined according to the method approved by the CLSI Antifungal Subcommittee as a reference method for determining dermatophyte susceptibilities (Ghannoum et al., J. Clin. Microbiol. 42: 2977-2979, 2004). […] Microbiol. Infect. Dis. 45:203-206, 2003.
(§2) Tables 1 and 2 describe the minimum inhibitory concentrations (in ug/mL) and the minimum fungicidal concentrations (in ug/mL), respectively, for the active agents against the dermatophyte strains.

T. rubrum [2] = assay: as above; assay type: cell-based, Trichophyton rubrum; conditions: n = 2 strains
Description: as §1, §2

[3] = system: T. rubrum elevated terbinafine (MIC); assay: Microdilution assay, minimum inhibitory concentration (MIC); assay type: cell-based, Trichophyton rubrum; conditions: for MIC Range / MIC50 / MIC90: T. rubrum elevated terbinafine (MIC), n = 3 strains; for MIC50 / MIC90: Trichophyton rubrum
Description: as §1, §2

T. rubrum [4] = assay: as above; assay type: cell-based, Trichophyton rubrum; conditions: n = 2 strains; for MIC50 / MIC90: Trichophyton rubrum
Description: as §1, §2

All Dermatophytes [5] = assay: as above; assay type: cell-based; conditions: for MIC50 / MIC90 / MIC Range: All Dermatophytes, n = 15 strains
Description: as §1, §2

T. mentagrophytes [6] = assay: as above; assay type: cell-based, Trichophyton mentagrophytes; conditions: n = 5 strains; for MIC50 / MIC90: Trichophyton mentagrophytes
Description: as §1, §2

All Dermatophytes [7] = assay: Microdilution assay, minimum fungicidal concentration (MFC); assay type: cell-based; conditions: for MFC50 / MFC90 / MFC Range: All Dermatophytes, n = 15 strains
Description: as §1, §2

T. mentagrophytes [8] = assay: as above; assay type: cell-based, Trichophyton mentagrophytes; conditions: n = 5 strains
Description: as §1, §2

E. flucossum [9] = assay: Microdilution assay, minimum inhibitory concentration (MIC); assay type: cell-based, Epidermophyton flucossum; conditions: n = 5 strains; for MIC50 / MIC90: Epidermophyton
Description: as §1, §2

E. flucossum [10] = assay: Microdilution assay, minimum fungicidal concentration (MFC); assay type: cell-based, Epidermophyton flucossum; conditions: n = 5 strains
Description: as §1, §2

| SMILES | MFC50 [1] [µg/mL] | MFC90 [1] [µg/mL] | MFC50 (T. rubrum [2]) [µg/mL] | MFC90 (T. rubrum [2]) [µg/mL] | MFC Range (T. rubrum [2]) [µg/mL] | MIC Range [3] [µg/mL] | MIC50 [3] [µg/mL] | MIC90 [3] [µg/mL] | MIC50 (T. rubrum [4]) [µg/mL] | MIC90 (T. rubrum [4]) [µg/mL] | MIC Range (T. rubrum [4]) [µg/mL] | MIC50 (All Dermatophytes [5]) [µg/mL] | MIC90 (All Dermatophytes [5]) [µg/mL] | MIC50 (T. mentagrophytes [6]) [µg/mL] | MIC90 (T. mentagrophytes [6]) [µg/mL] | MIC Range (T. mentagrophytes [6]) [µg/mL] | MFC50 (All Dermatophytes [7]) [µg/mL] | MFC90 (All Dermatophytes [7]) [µg/mL] | MFC50 (T. mentagrophytes [8]) [µg/mL] | MFC90 (T. mentagrophytes [8]) [µg/mL] | also measured |
| --- | --- | --- | --- | --- | --- | --- | --- | --- | --- | --- | --- | --- | --- | --- | --- | --- | --- | --- | --- | --- | --- |
| C[C@@H](n1cnc2cc(Cl)ccc2c1=O)[C@](O)(Cn1cncn1)c1ccc(F)cc1F [Albaconazole, (1R,2R)-7-chloro-3-[2-(2,4-difluorophenyl)-2-hydroxy-1-methyl-3-(1H-1,2,4-triazol-1yl)propyl]quinazolin-4(3H)-one] | 0.25 (≈ 0.579 µM) | 1 (≈ 2.32 µM) | 0.5 (≈ 1.16 µM) | 8 (≈ 18.5 µM) | 0.5 to 8 | 0.015 to 0.25 | 0.06 (≈ 0.139 µM) | 0.25 (≈ 0.579 µM) | 0.06 (≈ 0.139 µM) | 0.06 (≈ 0.139 µM) | 0.06 (≈ 0.139 µM) | 0.06 (≈ 0.139 µM) | 0.25 (≈ 0.579 µM) | 0.12 (≈ 0.278 µM) | 0.5 (≈ 1.16 µM) | 0.12 to 0.5 | 0.5 (≈ 1.16 µM) | 8 (≈ 18.5 µM) | 1 (≈ 2.32 µM) | 8 (≈ 18.5 µM) | MFC Range [1]: 0.06 to 1 µg/mL; effectiveness against terbinafine-resistant Trichophyton rubrum strains ([3]; compared with terbinafine, in words): more effective; MIC Range (All Dermatophytes [5]): 0.008 to 0.5 µg/mL; MICs overall, compared with ciclopirox and terbinafine (All Dermatophytes [5]; overall, in words): lower than those for ciclopirox and similar to those for terbinafine; MFC Range (All Dermatophytes [7]): 0.06 to 8 µg/mL; MFCs overall, compared with ciclopirox and terbinafine (All Dermatophytes [7]; overall, in words): lower than those for ciclopirox and similar to those for terbinafine; MFC Range (T. mentagrophytes [8]): 0.5 to 8 µg/mL; MIC50 (E. flucossum [9]): 0.015 µg/mL (≈ 0.0347 µM); MIC90 (E. flucossum [9]): 0.015 µg/mL (≈ 0.0347 µM); MIC Range (E. flucossum [9]): 0.008 to 0.015 µg/mL; MFC50 (E. flucossum [10]): 0.25 µg/mL (≈ 0.579 µM); MFC90 (E. flucossum [10]): 8 µg/mL (≈ 18.5 µM); MFC Range (E. flucossum [10]): 0.06 to 8 µg/mL |
| CN(C/C=C/C#CC(C)(C)C)Cc1cccc2ccccc12 [Terbinafine, terbinafine] | 32 (≈ 110 µM) | >64 | 0.008 (≈ 0.0275 µM) | 0.008 (≈ 0.0275 µM) | 0.008 (≈ 0.0275 µM) | 8 to 32 | 8 (≈ 27.5 µM) | 32 (≈ 110 µM) | 0.002 (≈ 0.00686 µM) | 0.002 (≈ 0.00686 µM) | 0.002 (≈ 0.00686 µM) | 0.002 (≈ 0.00686 µM) | 8 (≈ 27.5 µM) | 0.002 (≈ 0.00686 µM) | 0.004 (≈ 0.0137 µM) | 0.002 to 0.004 | 0.015 (≈ 0.0515 µM) | 32 (≈ 110 µM) | 0.015 (≈ 0.0515 µM) | 0.03 (≈ 0.103 µM) | MIC Range (All Dermatophytes [5]): 0.002 to 32 µg/mL; MFC Range (All Dermatophytes [7]): 0.008 µg/mL (≈ 0.0275 µM); MFC Range (T. mentagrophytes [8]): 0.015 to 0.03 µg/mL; MIC50 (E. flucossum [9]): 0.002 µg/mL (≈ 0.00686 µM); MIC90 (E. flucossum [9]): 0.008 µg/mL (≈ 0.0275 µM); MIC Range (E. flucossum [9]): 0.002 to 0.008 µg/mL; MFC50 (E. flucossum [10]): 0.03 µg/mL (≈ 0.103 µM); MFC90 (E. flucossum [10]): 0.03 µg/mL (≈ 0.103 µM) |
| Cc1cc(C2CCCCC2)n(O)c(=O)c1 [Ciclopirox, ciclopirox] | 16 (≈ 77.2 µM) | >32 | 16 (≈ 77.2 µM) | 32 (≈ 154 µM) | 16 to 32 | 0.12 (≈ 0.579 µM) | 0.12 (≈ 0.579 µM) | 0.12 (≈ 0.579 µM) | 0.12 (≈ 0.579 µM) | 0.12 (≈ 0.579 µM) | 0.12 (≈ 0.579 µM) | 0.12 (≈ 0.579 µM) | 0.25 (≈ 1.21 µM) | 0.25 (≈ 1.21 µM) | 0.25 (≈ 1.21 µM) | 0.12 to 0.25 | 16 (≈ 77.2 µM) | >32 | >32 | >32 | MIC50 (E. flucossum [9]): 0.12 µg/mL (≈ 0.579 µM); MIC90 (E. flucossum [9]): 0.12 µg/mL (≈ 0.579 µM); MIC Range (E. flucossum [9]): 0.12 µg/mL (≈ 0.579 µM); MFC50 (E. flucossum [10]): 4 µg/mL (≈ 19.3 µM); MFC90 (E. flucossum [10]): >32 µg/mL |
